# Experiments:
# Type in all cases: in vivo
# [1] = tested on: Strongyloides venezuelensis; experiment: Test 3: Strongyloides venezuelensis in infected Mongolian gerbils, eggs in feces and worms recovered; details: oral once 20 mg/kg, group mean
# Excerpt: For 1 rat, the 5000 infective larvae of Strongyloides venezuelensis were infected percutaneously to one group (2 rats) of 8 weeks old Mongolian gerbils. On the 10th day after they were infected, the suspended test compound was orally administered once with the amount of established administration. The effect was judged according to the amount of the eggs in the feces or the numbers of worms in the intestinal tract. The measurement of the numbers of the eggs were taken from O ring method, and the numbers of the eggs (EPG) in 1 g of feces were counted on the day before, on the day, and on the 1st, 2nd, 3rd, and 4th day after the administration. The numbers of the parasites were measured by dissecting Mongolian gerbils the 4th day after the administration (on the 14th day after infection). The method of measurement was followed by releasing the parasites, which live in the small intestines, into saline solution over night, and the released parasites were set to be as numbers of worms recovered.
# [2] = tested on: Nippostrongylus brasilienses; experiment: Test 2: reduction of Nippostrongylus brasilienses in infected rats, subcutaneous administration; details: Wistar rats, otherwise as Test 1
# Protocol: (§1) The effect of parasiticides was examined with the rats which was infected by nematodes which are parasitic on rats, Nippostrongylus brasilienses.
# (§2) Wistar strain rats (female 6 weeks old, 120-130 g weight) were […] by infecting them and giving them subcutaneous injections of 3000 infective larvae per rat.
# (§3) Test compound of 50 mg was dissolved in 0.25 ml dimethylsulfoxide, 0.5% methylcellulose solution was added, and liquid volume was adjusted to be prescribed volume of 100, 10, 5, 2.5, 1.25, 1.0, 0.63, 0.32 mg/kg to utilize. After they were infected, on each 7th, 8th, and 9th day, the test compound was administered orally with above concentration. On the 11th day, the rat was dissected and the numbers of parasites in the small intestines were measured.
# The given measurement was based to calculate the reduction rate from the percentage of the numbers of the parasites of unadministered rats (control). The result of it is shown in the
# The reduction rate was calculated in a similar manner as Test 1 except when the test compound was subcutaneously administered to the rats instead of oral administration as in Test 1.
# [3] = tested on: Nippostrongylus brasilienses; experiment: Test 1: reduction of Nippostrongylus brasilienses in infected rats, oral administration; details: Wistar rats, oral on 7th, 8th and 9th day after infection, parasites in small intestines counted on 11th day
# Protocol: as §1, §2, §3
# The given measurement was based to calculate the reduction rate from the percentage of the numbers of the parasites of unadministered rats (control). The result of it is shown in the […]
smiles,measurement,setting,value
CC(C)C[C@H]1C(=O)O[C@H](Cc2ccccc2)C(=O)N(C)[C@@H](CC(C)C)C(=O)O[C@H](C)C(=O)N(C)[C@@H](CC(C)C)C(=O)O[C@H](Cc2ccccc2)C(=O)N(C)[C@@H](CC(C)C)C(=O)O[C@H](C)C(=O)N1C [PF1022],Change in Numbers of Parasites' Number of Eggs in Feces (EPG/100),[1]; day 0 (starting day of administration),1615 EPG/100
same,Change in Numbers of Parasites' Number of Eggs in Feces (EPG/100),[1]; day 1 after administration,581 EPG/100
same,Change in Numbers of Parasites' Number of Eggs in Feces (EPG/100),[1]; day 2 after administration,1563 EPG/100
same,Change in Numbers of Parasites' Number of Eggs in Feces (EPG/100),[1]; day 3 after administration,935 EPG/100
same,Change in Numbers of Parasites' Number of Eggs in Feces (EPG/100),[1]; day 4 after administration,1005 EPG/100
same,Change in Numbers of Parasites' Number of Eggs in Feces (EPG/100),[1]; day -2 (before administration),332 EPG/100
same,Numbers of the Worms recovered,[1]; dissected 4th day after administration,3088
same,Minimum Amount of Administration indicated by more than 95% of Reduction Rate,[2],> 100 mg/kg
same,Minimum Amount of Administration indicated by more than 95% of Reduction Rate,[3],10 mg/kg

# — US5514773A, “Depsipeptide derivatives, production thereof and use thereof” (Fujisawa Pharmaceutical Co., Ltd., priority 1992, dated 1996)
